Measurements: the supplement of paper PMC9103864

Legend:
[1] = system: BMSC (primary human bone marrow mesenchymal stromal cells); assay: absolute EC50 for viability; higher = less sensitive
[2] = system: BMSC (primary human bone marrow mesenchymal stromal cells); assay: drug sensitivity score (DSS); higher = more sensitive

Row | Compound | absolute EC50 for viability [1] | drug sensitivity score [2]
1 | FC(F)(F)c1ccc(CNc2ccc(Cc3c[nH]c4ncc(Cl)cc34)cn2)cn1 [Pexidartinib] | > 10 µM | 3.6
2 | CS(=O)(=O)N1CCN(Cc2cc3nc(-c4cccc5[nH]ncc45)nc(N4CCOCC4)c3s2)CC1 [Pictilisib] | 1.28 µM | 11
3 | CC[C@@H]1C(=O)OC[C@@H]1Cc1cncn1C [Pilocarpine] | > 40 µM | 0
4 | CC(C)N(C[C@H]1O[C@@H](n2cnc3c(N)ncnc32)[C@H](O)[C@@H]1O)[C@H]1C[C@@H](CCc2nc3cc(C(C)(C)C)ccc3[nH]2)C1 [Pinometostat] | > 1 µM | 0
5 | Cc1ccc(=O)n(-c2ccccc2)c1 [Pirfenidone] | > 10 µM | 0
6 | NCCNc1ccc(NCCN)c2c1C(=O)c1ccncc1C2=O [Pixantrone] | > 10 µM | 0
7 | c1cc(CN2CCCNCCNCCCNCC2)ccc1CN1CCCNCCNCCCNCC1 [Plerixafor] | > 10 µM | 0
8 | CO[C@H](C(=O)[C@@H](O)[C@@H](C)O)[C@@H]1Cc2cc3cc(O[C@H]4C[C@@H](O[C@@H]5C[C@@H](O)[C@H](O)[C@@H](C)O5)[C@H](O)[C@@H](C)O4)c(C)c(O)c3c(O)c2C(=O)[C@H]1O[C@H]1C[C@@H](O[C@@H]2C[C@@H](O)[C@@H](O[C@@H]3C[C@](C)(O)[C@H](O)[C@@H](C)O3)[C@@H](C)O2)[C@H](O)[C@@H](C)O1 [Plicamycin] | > 10 µM | 2.1
9 | Nc1cccc2c1C(=O)N(C1CCC(=O)NC1=O)C2=O (stereo not given) [Pomalidomide] | > 10 µM | 0
10 | Cc1ccc(C(=O)Nc2ccc(CN3CCN(C)CC3)c(C(F)(F)F)c2)cc1C#Cc1cnc2cccnn12 [Ponatinib] | > 1 µM | 4.6
11 | C=CC(=O)N1CCC(Oc2cc3c(Nc4ccc(Cl)c(Cl)c4F)ncnc3cc2OC)CC1 [Poziotinib] | > 1 µM | 4.2
12 | CCCCc1nc2cc(/C=C/C(=O)NO)ccc2n1CCN(CC)CC [Pracinostat] | 1.56 µM | 8.8
13 | CC[C@H](C)C(=O)O[C@H]1C[C@H](O)C=C2C=C[C@H](C)[C@H](CC[C@@H](O)C[C@@H](O)CC(=O)O)[C@H]21 [Pravastatin] | > 10 µM | 0
14 | C[C@]12C=CC(=O)C=C1CC[C@@H]1[C@@H]2[C@@H](O)C[C@@]2(C)[C@H]1CC[C@]2(O)C(=O)CO [Prednisolone] | > 10 µM | 0
15 | Cn1cc(CNCC2CCN(c3ncc(C(=O)NO)cn3)CC2)c2ccccc21 [Quisinostat] | 0.181 µM | 8.3
16 | CC(C)(C)c1cc(NC(=O)Nc2ccc(-c3cn4c(n3)sc3cc(OCCN5CCOCC5)ccc34)cc2)no1 [Quizartinib] | > 1 µM | 2.2
17 | Cn1c(Nc2ccc(C(F)(F)F)cc2)nc2cc(Oc3ccnc(-c4ncc(C(F)(F)F)[nH]4)c3)ccc21 [RAF-265] | > 1 µM | 2.5
18 | Nc1cc(F)ccc1NC(=O)/C=C/c1cnn(C/C=C/c2ccccc2)c1 [RGFP966] | > 10 µM | 0.6
19 | COC(=O)c1ccc([C@H]2c3[nH]c4ccccc4c3C[C@H](C(=O)OC)N2C(=O)CCl)cc1 [RSL3] | > 10 µM | 0
20 | Cc1cnc(NC(=O)Nc2cc(Br)c(C)cc2OC[C@@H]2CNCCO2)cn1 [Rabusertib] | > 1 µM | 0
21 | Cc1cn(-c2cc(NC(=O)c3ccc(C)c(Nc4nccc(-c5cnccn5)n4)c3)cc(C(F)(F)F)c2)cn1 [Radotinib] | > 10 µM | 0
22 | CC(C)(C)Cn1c(N)nc2ccc(-c3[nH]c(C(C)(C)C)nc3-c3ccc(F)cc3)nc21 [Ralimetinib] | > 10 µM | 0.7
23 | O=C(c1ccc(OCCN2CCCCC2)cc1)c1c(-c2ccc(O)cc2)sc2cc(O)ccc12 [Raloxifene] | 7.96 µM | 2.6
24 | Cc1nc(=O)c2cc(CN(C)c3ccc(C(=O)N[C@@H](CCC(=O)O)C(=O)O)s3)ccc2[nH]1 [Raltitrexed] | > 1 µM | 0
25 | Cn1nccc1Nc1nccc(-c2ccn([C@H](CO)c3ccc(Cl)c(F)c3)c(=O)c2)n1 [Ravoxertinib] | > 10 µM | 0
26 | CNC(=O)c1cc(Oc2ccc(NC(=O)Nc3ccc(Cl)c(C(F)(F)F)c3)c(F)c2)ccn1 [Regorafenib] | > 10 µM | 0.7
27 | CCOC(=O)C1=CCCC[C@H]1S(=O)(=O)Nc1ccc(F)cc1Cl [Resatorvid] | 9.93 µM | 0
28 | CCOCc1nc2c(N)nc3ccccc3c2n1CC(C)(C)O [Resiquimod] | > 10 µM | 0

Row | Compound | absolute EC50 for viability [1] | drug sensitivity score [2]
29 | CN(C)Cc1ccc(S(=O)(=O)n2ccc(/C=C/C(=O)NO)c2)cc1 [Resminostat] | 2.63 µM | 6
30 | CN(C)C(=O)c1cc2cnc(Nc3ccc(N4CCNCC4)cn3)nc2n1C1CCCC1 [Ribociclib] | > 10 µM | 2.2
31 | CO[C@H]1C[C@@H]2CC[C@@H](C)[C@@](O)(O2)C(=O)C(=O)N2CCCC[C@H]2C(=O)O[C@H]([C@H](C)C[C@@H]2CC[C@@H](OP(C)(C)=O)[C@H](OC)C2)CC(=O)[C@H](C)/C=C(\C)[C@@H](O)[C@@H](OC)C(=O)[C@H](C)C[C@H](C)/C=C/C=C/C=C/1C [Ridaforolimus] | > 0.1 µM | 7.6
32 | COc1cc(OC)c(/C=C/S(=O)(=O)Cc2ccc(OC)c(NCC(=O)O)c2)c(OC)c1 [Rigosertib] | > 10 µM | 8.9
33 | C[C@H]1CNCCCN1S(=O)(=O)c1cccc2cncc(F)c12 [Ripasudil] | > 10 µM | 1.1
34 | C=CC(=O)Nc1cccc(Nc2nc(Nc3ccc(N4CCN(C(C)=O)CC4)cc3OC)ncc2C(F)(F)F)c1 [Rociletinib] | 2.86 µM | 5.8
35 | O=C(CCCCCCNC(=O)c1cnc(N(c2ccccc2)c2ccccc2)nc1)NO [Rocilinostat] | > 10 µM | 1.8
36 | C/C=C1\NC(=O)[C@H]2CSSCC/C=C/[C@H](CC(=O)N[C@H](C(C)C)C(=O)N2)OC(=O)[C@H](C(C)C)NC1=O [Romidepsin] | 0.0097 µM | 23.2
37 | Cc1nc(C(=O)NCC(=O)O)c(O)c2ccc(Oc3ccccc3)cc12 [Roxadustat] | > 10 µM | 0.5
38 | CN(C)C[C@@H]1CCn2cc(c3ccccc32)C2=C(C(=O)NC2=O)c2cn(c3ccccc23)CCO1 [Ruboxistaurin] | 2.42 µM | 7
39 | CNCc1ccc(-c2[nH]c3cc(F)cc4c3c2CCNC4=O)cc1 [Rucaparib] | > 10 µM | 2.3
40 | N#CC[C@H](C1CCCC1)n1cc(-c2ncnc3[nH]ccc23)cn1 [Ruxolitinib] | > 10 µM | 0.2
41 | CC(C)N(CCCNC(=O)Nc1ccc(C(C)(C)C)cc1)C[C@H]1O[C@@H](n2cc(Br)c3c(N)ncnc32)[C@H](O)[C@@H]1O [SGC0946] | > 10 µM | 2.1
42 | COc1ccc(CCc2nc3cc(-c4c(C)noc4C)ccc3n2C[C@H](C)N2CCOCC2)cc1Cl [SGC-CBP30] | > 25 µM | 2.1
43 | CN1CCC(CNc2ccc3ncc(-c4cccc(OC(F)(F)F)c4)n3n2)CC1 [SGI-1776] | 1.4 µM | 9.6
44 | CN(CC(=O)N(Cc1ccc(C2CCCCC2)cc1)c1ccc(C(=O)O)cc1)S(=O)(=O)c1c(F)c(F)c(F)c(F)c1F [SH-4-54] | > 25 µM | 4
45 | CCc1c2c(nc3ccc(O)cc13)-c1cc3c(c(=O)n1C2)COC(=O)[C@]3(O)CC [SN-38] | 1.52 µM | 10
46 | CC(C)(C)c1cnc(CSc2cnc(NC(=O)C3CCNCC3)s2)o1 [SNS-032] | > 10 µM | 12.8
47 | Cc1cc2c(C(=O)NC[C@H](C)c3ccccc3)c(O)c(O)cc2c(O)c1-c1c(C)cc2c(C(=O)NC[C@H](C)c3ccccc3)c(O)c(O)cc2c1O [Sabutoclax] | 7.71 µM | 5.6
48 | CC[C@@H](C(=O)[C@@H](C)[C@@H](O)[C@H](C)[C@@H]1O[C@@H]([C@@H](CC)C(=O)O)CC[C@@H]1C)[C@H]1O[C@]2(C=C[C@@H](O)[C@]3(CC[C@@](C)([C@H]4CC[C@](O)(CC)[C@H](C)O4)O3)O2)[C@H](C)C[C@@H]1C [Salinomycin] | 1.53 µM | 16.8
49 | CC(C)n1nc(-c2ccc3oc(N)nc3c2)c2c(N)ncnc21 [Sapanisertib] | 0.0759 µM | 11.4
50 | CNC(=O)CN1CCC(Oc2cc3c(Nc4cccc(Cl)c4F)ncnc3cc2OC)CC1 [Sapitinib] | > 1 µM | 0
51 | CN1CCN(CCOc2cc(OC3CCOCC3)c3c(Nc4c(Cl)ccc5c4OCO5)ncnc3c2)CC1 [Saracatinib] | > 10 µM | 5
52 | CC1=C2C[C@H]3[C@@H](CC[C@@H]4C[C@H](NS(C)(=O)=O)CC[C@@]43C)[C@@H]2CC[C@@]2(C1)O[C@@H]1C[C@H](C)CN[C@H]1[C@H]2C [Saridegib] | > 10 µM | 0
53 | CC[C@H](CO)Nc1nc(NCc2ccccc2)c2ncn(C(C)C)c2n1 [Seliciclib] | > 10 µM | 0
54 | O=C(/C=C\n1cnc(-c2cc(C(F)(F)F)cc(C(F)(F)F)c2)n1)NNc1cnccn1 [Selinexor] | > 10 µM | 3.1
55 | Cc1cc(F)c(C(=O)Nc2cccc(-c3nncn3C(C)C)n2)cc1-n1cnc(C2CC2)c1 [Selonsertib] | > 1 µM | 0
